Reference: patent publication US12486284B2, “Ubiquitin-specific protease inhibitor and preparation method therefor and use thereof” (CHASER THERAPEUTICS, INC., priority 2019, dated 2025)
Like-named read-outs stand apart in the source and are kept apart here.

Tests used:
USP28 = target: T1, USP28 (Homo sapiens, UniProt Q96RU2); test: USP28 activity measured using ubiquitin-rhodamine 110 method; format: biochemical; conditions: for IC50: purified USP28 4 nM, ubiquitin-rhodamine 110 125 nM, 30 min preincubation; for IC50(F)/IC50(E) USP28: ratio of IC50 of related 3-NH2 compound (F) to IC50 of 3-NHMe compound disclosed herein (E)
T1 construct: purchased R&D Systems
T1 sequence (Q96RU2 1-1077): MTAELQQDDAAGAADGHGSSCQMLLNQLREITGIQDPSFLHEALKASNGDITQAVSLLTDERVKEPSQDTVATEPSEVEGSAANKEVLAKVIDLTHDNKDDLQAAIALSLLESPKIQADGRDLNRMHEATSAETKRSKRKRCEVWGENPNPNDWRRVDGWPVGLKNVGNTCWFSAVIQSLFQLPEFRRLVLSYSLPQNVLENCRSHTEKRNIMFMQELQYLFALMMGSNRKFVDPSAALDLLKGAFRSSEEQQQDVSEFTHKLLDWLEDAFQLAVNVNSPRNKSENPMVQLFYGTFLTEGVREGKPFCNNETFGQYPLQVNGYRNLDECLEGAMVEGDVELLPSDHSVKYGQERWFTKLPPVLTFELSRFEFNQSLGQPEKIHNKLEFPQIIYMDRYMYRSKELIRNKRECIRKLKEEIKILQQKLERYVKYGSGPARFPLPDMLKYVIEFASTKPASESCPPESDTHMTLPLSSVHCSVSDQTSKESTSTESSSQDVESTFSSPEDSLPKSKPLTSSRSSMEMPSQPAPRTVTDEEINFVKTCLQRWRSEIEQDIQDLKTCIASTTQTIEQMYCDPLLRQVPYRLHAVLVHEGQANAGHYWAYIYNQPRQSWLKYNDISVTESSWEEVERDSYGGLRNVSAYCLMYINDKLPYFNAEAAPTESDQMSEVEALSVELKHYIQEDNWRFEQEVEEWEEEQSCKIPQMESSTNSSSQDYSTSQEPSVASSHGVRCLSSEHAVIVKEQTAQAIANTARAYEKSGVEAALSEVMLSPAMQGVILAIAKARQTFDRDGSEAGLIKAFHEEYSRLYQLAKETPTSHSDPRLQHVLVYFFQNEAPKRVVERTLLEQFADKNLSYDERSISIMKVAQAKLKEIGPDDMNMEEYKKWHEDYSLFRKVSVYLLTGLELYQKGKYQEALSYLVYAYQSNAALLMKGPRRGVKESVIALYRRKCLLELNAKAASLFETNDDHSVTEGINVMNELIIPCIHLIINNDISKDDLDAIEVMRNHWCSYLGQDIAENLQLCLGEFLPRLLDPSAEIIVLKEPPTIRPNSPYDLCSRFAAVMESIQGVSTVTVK
Description: USP28 activity was measured using ubiquitin-rhodamine 110 method.
(§1) Purified USP28 and the ubiquitin-rhodamine 110 substrate used for measuring DUBs activity were both from R&D Systems. Test compounds were first dissolved in DMSO to prepare a 10 mM stock solution, and then the stock solution was diluted with a buffer solution [containing 20 mM Tris-HCl (pH 8.0), 2 mM CaCl2), 3 mM BME, 0.01% Prionix, 0.01% Triton X-100] to the desired concentration (with DMSO content less than or equal to 0.5%). The dilution was mixed well with USP28 (final concentration 4 nM) in a 96-well plate and incubated at room temperature for 30 min, and then added with the substrate (ubiquitin-rhodamine 110) to 125 nM. The final volume of the whole reaction system was 20 μL. The released fluorescence (excitation wavelength 485 nm, emission wavelength 535 nm) was detected immediately on a microplate reader after the addition of the substrate. The inhibitory rate of the test compound against USP28 was calculated according to the following formula: Inhibition %=1−[(test compound+fluorescence value of substrate−fluorescence value of test compound (no substrate))/mean fluorescence value of DMSO control group−fluorescence value of test compound (no substrate)]
According to the inhibitory rates of the test compound against USP28 under different concentrations, IC50 was calculated.

USP25 = target: T2, USP25 (Homo sapiens, UniProt Q9UHP3); test: USP25 activity measured using ubiquitin-rhodamine 110 method; format: biochemical; conditions: for IC50: purified USP25 15 nM, ubiquitin-rhodamine 110 125 nM, 30 min preincubation; for IC50(F)/IC50(E) USP25: ratio of IC50 of related 3-NH2 compound (F) to IC50 of 3-NHMe compound disclosed herein (E)
T2 construct: purchased R&D Systems
T2 sequence (Q9UHP3 1-1055): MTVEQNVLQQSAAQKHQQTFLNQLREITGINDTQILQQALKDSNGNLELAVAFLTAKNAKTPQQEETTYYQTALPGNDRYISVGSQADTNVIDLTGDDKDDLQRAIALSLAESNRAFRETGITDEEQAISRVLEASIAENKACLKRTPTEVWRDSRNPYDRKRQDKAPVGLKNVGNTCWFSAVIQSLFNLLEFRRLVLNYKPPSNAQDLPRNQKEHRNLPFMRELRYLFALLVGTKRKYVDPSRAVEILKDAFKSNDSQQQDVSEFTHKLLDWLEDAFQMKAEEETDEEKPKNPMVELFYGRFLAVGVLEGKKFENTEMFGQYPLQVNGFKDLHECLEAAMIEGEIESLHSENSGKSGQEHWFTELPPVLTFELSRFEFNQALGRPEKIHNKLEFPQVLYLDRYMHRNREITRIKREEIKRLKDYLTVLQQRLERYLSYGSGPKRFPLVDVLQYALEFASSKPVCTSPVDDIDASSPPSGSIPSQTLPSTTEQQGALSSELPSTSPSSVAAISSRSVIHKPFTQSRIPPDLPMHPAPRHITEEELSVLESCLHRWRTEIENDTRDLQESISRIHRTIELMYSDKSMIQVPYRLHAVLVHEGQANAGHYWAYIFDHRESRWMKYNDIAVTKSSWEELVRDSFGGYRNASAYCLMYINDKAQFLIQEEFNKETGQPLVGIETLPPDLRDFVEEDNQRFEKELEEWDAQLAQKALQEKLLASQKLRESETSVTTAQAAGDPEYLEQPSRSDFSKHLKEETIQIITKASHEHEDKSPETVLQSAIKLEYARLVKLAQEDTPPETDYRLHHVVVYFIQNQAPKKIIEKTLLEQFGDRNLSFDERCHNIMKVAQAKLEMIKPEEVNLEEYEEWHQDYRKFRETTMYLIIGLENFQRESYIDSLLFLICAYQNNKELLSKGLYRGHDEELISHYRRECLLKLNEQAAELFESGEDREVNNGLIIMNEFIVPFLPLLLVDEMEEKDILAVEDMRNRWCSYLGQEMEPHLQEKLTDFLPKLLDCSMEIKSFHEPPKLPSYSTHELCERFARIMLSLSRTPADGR
Description: USP25 activity was measured using ubiquitin-rhodamine 110 method.
as §1, with “Purified USP25” for “Purified USP28”, “with USP25” for “with USP28”, “concentration 15” for “concentration 4”, “the substrate, and the” for “the substrate. The”, “against USP25” for “against USP28”
As in Example 11, according to the inhibitory rates of the test compound against USP25 under different concentrations, IC50 was calculated.

[1] = Inhibitory activity against USP28 (IC50)
[2] = read-out: Inhibitory activity against USP25 (IC50)
[3] = read-out: Inhibitory activity against USP28 (IC50)
[4] = Inhibitory activity against USP25 (IC50)

Structure (SMILES) | IC50 (USP28; [1]) [nM] | IC50 (USP25; [2]) [nM] | IC50 (USP28; [3]) [nM] | IC50(F)/IC50(E) USP28 (USP28) | IC50 (USP25; [4]) [nM] | IC50(F)/IC50(E) USP25 (USP25)
CNc1c(C(=O)NC2COc3cc(N4CC5CCC(C4)N5)ccc3C2)sc2nc(C)cnc12 (single isomer, unassigned) [Compound I-87] | < 100 | 100 to 1000 |  |  |  | 
CNc1c(C(=O)NC2COc3cc(N4CC5CCC(C4)N5)ccc3C2)sc2nc(C)cnc12 (single isomer, unassigned) [Compound I-88] |  | 1000 to 5000 | 1000 to 5000 |  |  | 
CNc1c(C(=O)NCCc2ccc(N3C[C@H]4CC[C@@H](C3)N4)cc2)sc2nc(C)ccc12 [Compound I-1, N-4-(3,8-diazabicyclo[3.2.1]octan-3-yl)phenethyl-6-methyl-3-methylaminothiophene[2,3-b]pyridine-2-carboxamide] | < 100 |  |  | 18.75 | < 100 | >20
CNc1c(C(=O)NCCc2ccc(N3CCNCC3)cc2)sc2nc(C)ccc12 [Compound I-2] |  | 100 to 1000 | 100 to 1000 |  |  | 
CNc1c(C(=O)NCCc2ccc(C3CCNCC3)cc2)sc2nc(C)ccc12 [Compound I-3] |  | 100 to 1000 | < 100 |  |  | 
CNc1c(C(=O)NCCc2ccc(C3CC4CCC(C3)N4)cc2)sc2nc(C)ccc12 (stereo not shown) [Compound I-4] | < 100 |  |  |  | < 100 | 
CNc1c(C(=O)NCCc2ccc(C3C4CCC3CNC4)cc2)sc2nc(C)ccc12 (stereo not shown) [Compound I-5] |  | < 100 | < 100 |  |  | 
CNc1c(C(=O)NCCc2ccc(N3C4CCC3CNC4)cc2)sc2nc(C)ccc12 [Compound I-6] | < 100 |  |  |  | < 100 | 
CNc1c(C(=O)NCCc2ccc(C3CC4CC3CN4)cc2)sc2nc(C)ccc12 (stereo not shown) [Compound I-7] |  | 100 to 1000 | < 100 |  |  | 
CNc1c(C(=O)NCCc2ccc(N3CC4CC3CN4)cc2)sc2nc(C)ccc12 (stereo not shown) [Compound I-8] |  | < 100 | < 100 |  |  | 
CNc1c(C(=O)NCCc2ccc(N3C[C@H]4CC[C@@H](C3)N4)cc2)sc2ncccc12 [Compound I-9] | < 100 | 100 to 1000 |  | 9.2 |  | >10
CCc1ccc2c(NC)c(C(=O)NCCc3ccc(N4C[C@H]5CC[C@@H](C4)N5)cc3)sc2n1 [Compound I-10] | < 100 | 1000 to 5000 |  |  |  | 
CCCc1ccc2c(NC)c(C(=O)NCCc3ccc(N4C[C@H]5CC[C@@H](C4)N5)cc3)sc2n1 [Compound I-11] | < 100 | > 10000 |  |  |  | 
CNc1c(C(=O)NCCc2ccc(N3C[C@H]4CC[C@@H](C3)N4)cc2)sc2nc(C(C)C)ccc12 [Compound I-12] | < 100 | 5000 to 10000 |  |  |  | 
CCCCc1ccc2c(NC)c(C(=O)NCCc3ccc(N4C[C@H]5CC[C@@H](C4)N5)cc3)sc2n1 [Compound I-13] | < 100 | > 10000 |  |  |  | 
CNc1c(C(=O)NCCc2ccc(N3C[C@H]4CC[C@@H](C3)N4)cc2)sc2nc(CC(C)C)ccc12 [Compound I-14] | < 100 | > 10000 |  |  |  | 
CNc1c(C(=O)NCCc2ccc(N3C[C@H]4CC[C@@H](C3)N4)cc2)sc2nc(C3CC3)ccc12 [Compound I-15] | < 100 | 1000 to 5000 |  |  |  | 
CNc1c(C(=O)NCCc2ccc(N3C[C@H]4CC[C@@H](C3)N4)cc2)sc2nc(C(F)(F)F)ccc12 [Compound I-16] |  | 1000 to 5000 | 100 to 1000 |  |  | 
CNc1c(C(=O)NCCc2ccc(N3C[C@H]4CC[C@@H](C3)N4)cc2)sc2nc(OC)ccc12 [Compound I-17] |  | 100 to 1000 | 100 to 1000 |  |  | 
CNc1c(C(=O)NCCc2ccc(N3C[C@H]4CC[C@@H](C3)N4)cc2)sc2ncc(F)cc12 [Compound I-18] |  | > 10000 | 100 to 1000 |  |  | 
CNc1c(C(=O)NCCc2ccc(N3C[C@H]4CC[C@@H](C3)N4)cc2)sc2ncc(C)cc12 [Compound I-19] |  | > 10000 | 1000 to 5000 |  |  | 
CNc1c(C(=O)NCCc2ccc(N3C[C@H]4CC[C@@H](C3)N4)cc2)sc2nccc(C)c12 [Compound I-20] |  | 100 to 1000 | 100 to 1000 |  |  | 
CNc1c(C(=O)NCCc2ccc(N3C[C@H]4CC[C@@H](C3)N4)cc2)sc2nccc(C(F)(F)F)c12 [Compound I-21] |  | 1000 to 5000 | 100 to 1000 |  |  | 
CNc1c(C(=O)NCCc2ccc(N3C[C@H]4CC[C@@H](C3)N4)cc2)sc2nc(CO)ccc12 [Compound I-22] |  | 100 to 1000 | 100 to 1000 |  |  | 
CCNc1c(C(=O)NCCc2ccc(N3C[C@H]4CC[C@@H](C3)N4)cc2)sc2nc(C)ccc12 [Compound I-23] |  | 5000 to 10000 | 100 to 1000 |  |  | 
CCCNc1c(C(=O)NCCc2ccc(N3C[C@H]4CC[C@@H](C3)N4)cc2)sc2nc(C)ccc12 [Compound I-24] |  | > 10000 | 100 to 1000 |  |  | 
Cc1ccc2c(NCCN(C)C)c(C(=O)NCCc3ccc(N4C[C@H]5CC[C@@H](C4)N5)cc3)sc2n1 [Compound I-25] |  | > 10000 | 5000 to 10000 |  |  | 
